Test results: PMC6137095 (Scientific Reports, 2018)

Key:
Type in all cases: binding
mSin3B PAH1 domain [1] = molecular target: T1, mSin3B PAH1 domain (Mus musculus, UniProt Q62141); assay: 1H-15N HSQC titration, STD and WaterLOGSY NMR
T1 construct: gene Sin3b; PAH1 domain, a.a; 28–107 with a Met at the N-terminus (GST fusion for WaterLOGSY/STD)
T1 sequence (Q62141 28-107): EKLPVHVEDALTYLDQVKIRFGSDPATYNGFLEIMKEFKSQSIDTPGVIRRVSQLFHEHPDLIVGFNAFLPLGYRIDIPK

mSin3B PAH1 domain [2] = molecular target: T1, mSin3B PAH1 domain; assay: WaterLOGSY NMR titration; STD and 1H-15N HSQC
mSin3B PAH1 domain [3] = molecular target: T1, mSin3B PAH1 domain; assay: 1H-15N HSQC, STD and WaterLOGSY NMR (weak/moderate)
mSin3B PAH1 domain [4] = molecular target: T1, mSin3B PAH1 domain; assay: STD, WaterLOGSY and HSQC NMR

C#CC(C)(O)CCc1cc(C)c(OC)cc1C (stereo not shown) [YN3]
1H-15N HSQC titration, STD and WaterLOGSY NMR (mSin3B PAH1 domain [1]): four compounds YN29, YN31, YN3, and YN28, have a strong affinity for the mSin3B PAH1 domain

CN(C)CC/C=C1/c2ccccc2Sc2ccc(Cl)cc21 [YN28, chlorprothixene]
Kd (mSin3B PAH1 domain [2]): 35 ± 11 µM

CN(C)CCCN1c2ccccc2Sc2ccc(Cl)cc21 [YN29, chlorpromazine]
Kd (mSin3B PAH1 domain [2]): 15 ± 4.2 µM

COc1cc(CNC(=O)CCCC/C=C/C(C)C)ccc1O [YN39]
1H-15N HSQC, STD and WaterLOGSY NMR (weak/moderate) (mSin3B PAH1 domain [3]): only YN39, YN40, and YN42 showed clear signals in the STD spectra

CNCCCC12CCC(c3ccccc31)c1ccccc12 [YN40]
1H-15N HSQC, STD and WaterLOGSY NMR (weak/moderate) (mSin3B PAH1 domain [3]): only YN39, YN40, and YN42 showed clear signals in the STD spectra

Clc1ccc2c(c1)C(N1CCNCC1)=Nc1ccccc1O2 [YN42]
1H-15N HSQC, STD and WaterLOGSY NMR (weak/moderate) (mSin3B PAH1 domain [3]): only YN39, YN40, and YN42 showed clear signals in the STD spectra

Fc1ccc([C@@H]2CCNC[C@H]2COc2ccc3c(c2)OCO3)cc1 [paroxetine]
STD, WaterLOGSY and HSQC NMR (mSin3B PAH1 domain [4]): STD, WaterLOGSY, and HSQC experiments showed that paroxetine binds strongly to the PAH1 domain of mSin3B
